Measured values from US10407440B2, “Therapeutic agent for motor disorders” (KYOWA HAKKO KIRIN CO., LTD., priority 2009, dated 2019).
Read-outs that look alike come from different tables or passages of the source.

Assays:
[1] = molecular target: T1, human adenosine A1 receptor (Homo sapiens, UniProt P30542); assay: Adenosine A1 receptor binding test (3H-DPCPX binding); details: read-out: Inhibitory rate for human adenosine A1 receptor binding (3H-DPCPX binding)
T1 construct: host or cells: CHO cells (membranes)
T1 sequence (P30542 1-326): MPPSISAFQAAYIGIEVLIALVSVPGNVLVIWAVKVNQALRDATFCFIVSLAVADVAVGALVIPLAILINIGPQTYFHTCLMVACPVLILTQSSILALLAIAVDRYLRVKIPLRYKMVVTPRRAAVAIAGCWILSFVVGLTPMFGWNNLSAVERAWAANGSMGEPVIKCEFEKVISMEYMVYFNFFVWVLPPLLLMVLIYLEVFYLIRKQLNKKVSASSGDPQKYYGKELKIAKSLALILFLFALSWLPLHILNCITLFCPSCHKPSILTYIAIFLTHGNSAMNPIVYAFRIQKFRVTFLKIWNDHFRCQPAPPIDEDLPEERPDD
Excerpt: Specifically, for example, human A1 receptor-expressing CHO cell membranes are used, and, as the labeled compound, for example, tritium-labeled DPCPX (1,3-dipropyl-8-cyclopentylxanthine) is used. The amount of non-specific binding can be determined by measuring the ^3H-DPCPX bound radioactivity in the presence of, for example, 100 μmol/L of R(−)-PIA((−)-N^6-2-phenylisopropyl adenosine).

[2] = molecular target: T2, human adenosine A2A receptor (Homo sapiens, UniProt P29274); assay: Adenosine A2A receptor binding test (3H-CGS21680 binding); details: compound at 100 nmol/L; Table 2, measured by Ricerca Biosciences, LLC; read-out: Inhibitory rate for human adenosine A2A receptor binding (3H-CGS21680 binding)
T2 construct: host or cells: HEK-293 cells (membranes)
Excerpt: Specifically, for example, human recombinant receptors are expressed in HEK-293 cells.
The inhibitory rate can be calculated by the following equation.

[3] = tested on: MPTP-treated common marmoset that developed motor complication; assay: Test Example 4: combination with L-DOPA in MPTP-treated common marmoset that developed motor complication; format: in vivo; details: 1 mg/kg compound combined with L-DOPA 2.5 mg/kg, gavage
Experimental: 10 mg/kg of L-DOPA (containing 2.5 mg/kg of benserazide hydrochloride) was administered by gavage to common marmoset that developed chronic parkinsonian symptoms by treatment with MPTP by the method described in Test Example 3 (MPTP-treated marmoset) twice a day at about 6 hr intervals. L-DOPA was repeatedly administered for more than 3 weeks to induction of motor complication (dyskinesia symptom, wearing-off phenomenon, on-off fluctuation and the like) in MPTP-treated marmoset in addition to parkinsonian symptoms, and the marmoset was used for the test. […] The locomotor activity was automatically measured using a computer by a measuring apparatus with a photocell. […] The subject animal was placed in an observation cage (with locomotor activity measuring apparatus) one day before the test compound administration for preconditioning to the environment. The symptoms of Parkinson's disease were continuously monitored through one-way mirror and disability score was scored each 10 min for 6 hr.

[4] = tested on: MPTP-treated common marmoset; assay: Test Example 3: combination with L-DOPA in MPTP-treated common marmoset, motor disability score; format: in vivo
Excerpt: Parkinson's disease is a disease based on the progressive degeneration and loss of dopaminergic neuron in substantia nigra-striatum. In primates, a treatment with MPTP, which is a dopamine neurotoxin, causes selective degeneration and loss of dopaminergic neuron in substantia nigra-striatum and induces symptoms of akinesia, muscle rigidity and the like. The primates treated with MPTP are known as the model of Parkinson's disease [Proceedings of the National Academy of Science USA, vol. 80, p. 4546 (1983)]. In addition, common marmoset belongs to Haplorhini and is known to show the symptoms of Parkinson's disease by MPTP, like other Haplorhini [Neuroscience Letter, vol. 57, p. 37 (1985)]. […] The parkinsonian symptoms were judged using the index described in a previous report [Annales of Neurology, vol. 43, p. 507 (1998)]. All compounds were used as a suspension in 0.5% MC400, 10% aqueous sucrose solution. The subject animal was placed in an observation cage (with locomotor activity measuring apparatus) one day before the test compound administration for preconditioning to the environment. The symptoms of Parkinson's disease were continuously monitored through one-way mirror and disability score was scored each 10 min for 6 hr.
The locomotor activity was automatically measured using a computer by a measuring apparatus with a photocell.

[5] = compound at 100 nmol/L, Table 2, measured by Ricerca Biosciences, LLC

T2 sequence (P29274 whole entry): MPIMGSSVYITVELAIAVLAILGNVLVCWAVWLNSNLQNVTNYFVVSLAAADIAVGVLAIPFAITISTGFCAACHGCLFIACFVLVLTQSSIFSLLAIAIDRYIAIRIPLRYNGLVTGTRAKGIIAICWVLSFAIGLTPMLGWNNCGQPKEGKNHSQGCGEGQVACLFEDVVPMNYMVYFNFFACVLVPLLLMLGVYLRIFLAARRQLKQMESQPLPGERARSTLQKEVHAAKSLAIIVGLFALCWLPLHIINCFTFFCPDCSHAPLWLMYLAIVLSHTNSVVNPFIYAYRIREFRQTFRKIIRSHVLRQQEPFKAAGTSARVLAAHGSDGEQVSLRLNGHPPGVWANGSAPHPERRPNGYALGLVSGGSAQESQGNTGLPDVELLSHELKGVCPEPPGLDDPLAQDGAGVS

| SMILES | inhibition at 0.1 µM [1, 5] | inhibition at 0.1 µM [2] | also measured |
| --- | --- | --- | --- |
| O=C(Nc1nc(-c2ccoc2)c(C(=O)C2CCOCC2)s1)c1cnc2c(c1)CCC2 [(IAA), N-[4-(3-Furyl)-5-(tetrahydropyran-4-carbonyl)thiazol-2-yl]-6,7-dihydro-5H-cyclopenta[b]pyridine-3-carboxamide] | 9% | 98% |  |
| C=Cc1ccc(C(=O)Nc2nc(-c3ccco3)c(C(=O)C3CCOCC3)s2)cn1 [(IE), N-[4-(2-Furyl)-5-(tetrahydropyran-4-carbonyl)thiazol-2-yl]-6-vinylpyridine-3-carboxamide] | 33% | 93% |  |
| O=C(Cc1cccnc1)Nc1nc(-c2ccco2)c(C(=O)C2CCOCC2)s1 [(IF), N-[4-(2-Furyl)-5-(tetrahydropyran-4-carbonyl)thiazol-2-yl]-2-(pyridin-3-yl)acetamide] | 50% | 107% |  |
| O=C(Nc1nc(-c2ccco2)c(C(=O)C2CCOCC2)s1)c1ccc[nH]1 [(IG), N-[4-(2-Furyl)-5-(tetrahydropyran-4-carbonyl)thiazol-2-yl]-1H-pyrrole-2-carboxamide] | 91% | 102% |  |
| O=C(Nc1nc(-c2ccco2)c(C(=O)C2CCOCC2)s1)c1cccc2[nH]ccc12 [(IH), N-[4-(2-Furyl)-5-(tetrahydropyran-4-carbonyl)thiazol-2-yl]-1H-indole-4-carboxamide] | 67% | 98% |  |
| O=C(Nc1nc(-c2ccco2)c(C(=O)C2CCOCC2)s1)c1ccnc(CN2CCOCC2)c1 [(II), N-[4-(2-Furyl)-5-(tetrahydropyran-4-carbonyl)thiazol-2-yl]-2-(morpholin-4-ylmethyl)pyridine-4-carboxamide] | 19% | 85% |  |
| COCc1cc(C(=O)Nc2nc(-c3ccco3)c(C(=O)C3CCOCC3)s2)ccn1 [(IJ), N-[4-(2-Furyl)-5-(tetrahydropyran-4-carbonyl)thiazol-2-yl]-2-methoxymethylpyridine-4-carboxamide] | 21% | 93% |  |
| CCOCc1cc(C(=O)Nc2nc(-c3ccco3)c(C(=O)C3CCOCC3)s2)ccn1 [(IK), 2-Ethoxymethyl-N-[4-(2-furyl)-5-(tetrahydropyran-4-carbonyl)thiazol-2-yl]pyridine-4-carboxamide] | 24% | 92% |  |
| CC(C)OCc1cc(C(=O)Nc2nc(-c3ccco3)c(C(=O)C3CCOCC3)s2)ccn1 [(IL), N-[4-(2-Furyl)-5-(tetrahydropyran-4-carbonyl)thiazol-2-yl]-2-isopropoxymethylpyridine-4-carboxamide] | 20% | 85% |  |
| O=C(Nc1nc(-c2ccco2)c(C(=O)C2CCOCC2)s1)c1cnc2occc2c1 [(IM), N-[4-(2-Furyl)-5-(tetrahydropyran-4-carbonyl)thiazol-2-yl]furo[2,3-b]pyridine-5-carboxamide] | 47% | 98% |  |
| O=C(Cc1ccccn1)Nc1nc(-c2ccco2)c(C(=O)C2CCOCC2)s1 [(IN), N-[4-(2-Furyl)-5-(tetrahydropyran-4-carbonyl)thiazol-2-yl]-2-(pyridin-2-yl)acetamide] | 21% | 93% |  |
| COc1ccc(C(=O)Nc2nc(-c3ccco3)c(C(=O)C3CCOCC3)s2)cn1 [(IO), N-[4-(2-Furyl)-5-(tetrahydropyran-4-carbonyl)thiazol-2-yl]-6-methoxypyridine-3-carboxamide] | 56% | 97% |  |
| O=C(Nc1nc(-c2ccco2)c(C(=O)C2CCOCC2)s1)c1cnc2ccccc2c1 [(IP), N-[4-(2-Furyl)-5-(tetrahydropyran-4-carbonyl)thiazol-2-yl]quinoline-3-carboxamide] | 18% | 98% |  |
| Cc1cc(C(=O)Nc2nc(-c3ccco3)c(C(=O)C3CCOCC3)s2)cnc1C [(IQ), N-[4-(2-Furyl)-5-(tetrahydropyran-4-carbonyl)thiazol-2-yl]-5,6-dimethylpyridine-3-carboxamide] | 18% | 100% |  |
| CCc1cncc(C(=O)Nc2nc(-c3ccco3)c(C(=O)C3CCOCC3)s2)c1 [(IR), 5-Ethyl-N-[4-(2-furyl)-5-(tetrahydropyran-4-carbonyl)thiazol-2-yl]pyridine-3-carboxamide] | 30% | 107% |  |
| O=C(Nc1nc(-c2ccco2)c(C(=O)C2CCOCC2)s1)c1cnc2c(c1)COCC2 [(IS), N-[4-(2-Furyl)-5-(tetrahydropyran-4-carbonyl)thiazol-2-yl]-7,8-dihydro-5H-pyrano[4,3-b]pyridine-3-carboxamide] | 10% | 90% |  |
| O=C(Nc1nc(-c2ccco2)c(C(=O)C2CCOCC2)s1)c1cnc2c(c1)CCC2 [(IT), N-[4-(2-Furyl)-5-(tetrahydropyran-4-carbonyl)thiazol-2-yl]-6,7-dihydro-5H-cyclopenta[b]pyridine-3-carboxamide] | 37% | 91% |  |
| O=C(Nc1nc(-c2ccco2)c(C(=O)C2CCOCC2)s1)c1cc2ccccc2[nH]1 [(IU), N-[4-(2-Furyl)-5-(tetrahydropyran-4-carbonyl)thiazol-2-yl]-1H-indole-2-carboxamide] | 36% | 110% |  |
| CCc1ccc(C(=O)Nc2nc(-c3ccco3)c(C(=O)C3CCOCC3)s2)cn1 [(IV), 6-Ethyl-N-[4-(2-furyl)-5-(tetrahydropyran-4-carbonyl)thiazol-2-yl]pyridine-3-carboxamide] | 23% | 98% |  |
| CCCc1ccc(C(=O)Nc2nc(-c3ccco3)c(C(=O)C3CCOCC3)s2)cn1 [(IW), N-[4-(2-Furyl)-5-(tetrahydropyran-4-carbonyl)thiazol-2-yl]-6-propylpyridine-3-carboxamide] | 23% | 98% |  |
| O=C(Nc1nc(-c2ccco2)c(C(=O)C2CCOCC2)s1)c1cnc2c(c1)CSCC2 [(IX), N-[4-(2-Furyl)-5-(tetrahydropyran-4-carbonyl)thiazol-2-yl]-7,8-dihydro-5H-thiopyrano[4,3-b]pyridine-3-carboxamide] | 18% | 101% |  |
| CC(=O)c1cc(C(=O)Nc2nc(-c3ccco3)c(C(=O)C3CCOCC3)s2)cnc1C [(IY), 5-Acetyl-N-[4-(2-furyl)-5-(tetrahydropyran-4-carbonyl)thiazol-2-yl]-6-methylpyridine-3-carboxamide] | 8% | 97% |  |
| CCc1cncc(C(=O)Nc2nc(-c3ccoc3)c(C(=O)C3CCOCC3)s2)c1 [(IZ), 5-Ethyl-N-[4-(3-furyl)-5-(tetrahydropyran-4-carbonyl)thiazol-2-yl]pyridine-3-carboxamide] | 21% | 102% |  |
| Cc1ccc(C(=O)Nc2nc(-c3ccco3)c(C(=O)C3CCOCC3)s2)cn1 [Compound (IC)] |  |  | duration (on-time) of anti-parkinsonian activities of L-DOPA [3]: about 150 min; minimum disability score [3]: 3.83±0.17; inhibition at 0.1 µM [1]: 29%; duration of anti-parkinsonian activity of L-DOPA ([4]; 1 mg/kg compound co-administered orally with L-DOPA 2.5, 5.0, 7.5 and 10.0 mg/kg): prolonged the anti-parkinsonian activity of L-DOPA; maximum effects of L-DOPA (minimum motor disability score) ([4]; 1 mg/kg compound co-administered orally with L-DOPA 2.5, 5.0, 7.5 and 10.0 mg/kg, versus L-DOPA alone): enhanced maximum effects of L-DOPA alone; action expression time (on-time) ([4]; 1 mg/kg compound plus 10 mg/kg L-DOPA orally, compared to 10 mg/kg L-DOPA alone): increased |
